Laboratory results from US20090215752A1, “Compounds, preparation and therapeutic use thereof” (priority 2005, published 2009).

molecular target: T1, PDE2 (Homo sapiens, UniProt O00408); test: Inhibition of PDE2 (radioenzymatic phosphodiesterase assay); type: biochemical; details: Table 1; 10 μM compound; 1 μM cyclic AMP
T1 construct: PDE2 was isolated from human platelets, provided by Etablissement Français du Sang-Alsace; tissue Etablissement Français du Sang-Alsace; host or cells: human platelets
T1 sequence (O00408 whole entry): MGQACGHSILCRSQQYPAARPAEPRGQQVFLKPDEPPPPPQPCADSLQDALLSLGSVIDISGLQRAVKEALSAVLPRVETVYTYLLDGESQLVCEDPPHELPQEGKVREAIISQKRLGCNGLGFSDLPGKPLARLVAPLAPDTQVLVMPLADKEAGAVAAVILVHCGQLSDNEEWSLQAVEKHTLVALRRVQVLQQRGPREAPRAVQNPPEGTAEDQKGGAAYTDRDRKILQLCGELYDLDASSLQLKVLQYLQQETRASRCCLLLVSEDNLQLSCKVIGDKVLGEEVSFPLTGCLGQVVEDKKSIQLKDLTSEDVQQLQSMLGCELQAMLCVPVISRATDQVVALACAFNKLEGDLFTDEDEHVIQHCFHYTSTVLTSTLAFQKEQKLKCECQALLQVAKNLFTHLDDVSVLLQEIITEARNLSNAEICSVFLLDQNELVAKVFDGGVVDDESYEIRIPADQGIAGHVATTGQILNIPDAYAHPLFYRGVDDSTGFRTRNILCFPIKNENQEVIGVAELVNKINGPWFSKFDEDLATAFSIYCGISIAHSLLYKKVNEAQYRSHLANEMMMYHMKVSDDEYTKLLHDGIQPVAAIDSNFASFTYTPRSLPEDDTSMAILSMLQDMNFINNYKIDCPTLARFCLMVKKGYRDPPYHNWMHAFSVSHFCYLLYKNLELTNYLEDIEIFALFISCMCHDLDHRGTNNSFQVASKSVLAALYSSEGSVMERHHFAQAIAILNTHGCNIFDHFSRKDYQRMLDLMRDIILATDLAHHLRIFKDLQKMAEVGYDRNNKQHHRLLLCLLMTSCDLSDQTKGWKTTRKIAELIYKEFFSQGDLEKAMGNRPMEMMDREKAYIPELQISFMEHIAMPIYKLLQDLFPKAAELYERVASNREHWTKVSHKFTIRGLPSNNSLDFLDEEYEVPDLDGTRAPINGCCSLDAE
Protocol: 2.1.1. Isolation of Phosphodiesterases from Smooth Muscle A 3 g segment of bovine aortic media cut into pieces with scissors was homogenized with an ultra-turrax then a potter glass/glass homogenizer in 7 volumes by weight of buffer A containing a protease inhibitor cocktail (20 mM Tris-HCl, 0.25 M saccharose, 2 mM magnesium acetate, 1 mM dithiothreitol, 5 mM EGTA, 2000 U/ml aprotinin, 10 mg/l leupeptin and 10 mg/l soya trypsic inhibitor). The homogenizate was centrifuged at 105,000 g for 1 hour. The supernatant was loaded on a DEAE-Sephacel column (15×1.6 cm) pre-equilibrated with buffer B (buffer A without the saccharose, EGTA and protease inhibitors). The column was washed until there was no detectable absorption at 280 nm, then eluted with a linear gradient of NaCl (0-0.5 M) in buffer B. 3-ml fractions were collected and enzyme activity was determined under the conditions described hereinbelow to localize the different enzymes PDE1, PDE3, PDE4 and PDE5 which were aliquoted and frozen at −80° C. (Lugnier et al., Biochem. Phamacol., 1986, 35: 1746-1751). PDE2 was isolated from human platelets, provided by Etablissement Français du Sang-Alsace, according to Kameni Tcheudji J F et al., (J. Mol. Biol. 2001; 310: 181-791), and stored until use at −80° C. in small aliquots.
Cyclic nucleotide phosphodiesterase activity was determined by a radioenzymatic method using tritium-labelled cyclic GMP or AMP (1 μM) as substrate (Lugnier et al., 1986). ^3H-labelled adenosine or guanosine monophosphate formed by hydrolysis of the radiolabelled cyclic nucleotide was then converted to ^3H-labelled adenosine or guanosine in a second reaction with […] in excess. The nucleoside formed was separated from the nucleotides by anion exchange chromatography. Nucleoside radioactivity was determined by liquid scintillation counting. Enzymatic incubations were carried out under conditions allowing no more than 15% hydrolysis of the substrate; each point was performed in duplicate.
The concentration of substance which inhibits enzymatic activity by 50% (IC50) at 1 μM cyclic AMP was calculated by nonlinear regression from the experimental values of hydrolysis rate (Prism, GraphPad).

Compound | PDE2 percentage inhibition at 10 μM
COc1cc2c(c(OC)c1-c1cccnc1)C(c1cccc(C#N)c1)=NCC(=O)N2 [Compound 4] | 4%
COc1cc2c(c(OC)c1-c1ccccc1)C(c1cccc(C#CCNC(=O)OC(C)(C)C)c1)=NCC(=O)N2C [Compound 30, {3-[3-(6,8-Dimethoxy-1-methyl-2-oxo-7-phenyl-2,3-dihydro-1-benzo[e][1,4]diazepin-5-yl)-phenyl]-prop-2-ynyl}-carbamic acid tert-butyl ester] | 69%
COc1cc2c(c(OC)c1-c1cccnc1)C(c1cccc(C(N)=O)c1)=NCC(=O)N2 [Compound 19, 3-(6,8-Dimethoxy-2-oxo-7-pyridin-3-yl-2,3-dihydro-1H-benzo[e][1,4]diazepin-5-yl)-benzamide] | 27%

same assay, conditions: Table 1; 10 μM compound; 1 μM cyclic AMP; read-out: PDE2 percentage inhibition at 10 μM

Compound | inhibition at 10 µM
COc1cc2c(c(OC)c1-c1ccccc1)C(c1ccccc1)=NCC(=O)N2 [Compound 3, 6,8-Dimethoxy-5,7-diphenyl-1,3-dihydro-benzo[e][1,4]diazepin-2-one] | 25%
COc1cc2c(c(OC)c1-c1ccccc1)C(c1cccc(Br)c1)=NCC(=O)N2C [Compound 10, 5-(3-Bromo-phenyl)-6,8-dimethoxy-1-methyl-7-phenyl-1,3-dihydro-benzo[e][1,4]diazepin-2-one] | 86%

same assay, conditions: read-out: PDE2 percentage inhibition at 10 μM, Table 1; 10 μM compound; 1 μM cyclic AMP

Compound | inhibition at 10 µM
COc1cc2c(c(OC)c1-c1ccccc1)C(c1cccc(C#CCN)c1)=NCC(=O)N2C [Compound 31, 5-[3-(3-Amino-prop-1-ynyl)-phenyl]6,8-dimethoxy-1-methyl-7-phenyl-1,3-dihydro-benzo[e][1,4]diazepin-2-one] | 42%
COc1cc2c(c(OC)c1-c1ccccc1)C(c1cccc(C#CCNC(=O)OC(C)(C)C)c1)=NCC(=O)N2C [Compound 28, {3-[3-(6,8-Dimethoxy-1-methyl-2-oxo-7-phenyl-2,3-dihydro-1H-benzo[e][1,4]diazepin-5-yl)-phenyl]-prop-2-ynyl}-carbamic acid tert-butyl ester] | 43%
COc1cc2c(c(OC)c1-c1ccccc1)C(c1cccc(C#N)c1)=NCC(=O)N2Cc1ccccc1 [Compound 14, 3-(1-Benzyl-6,8-dimethoxy-2-oxo-7-phenyl-2,3-dihydro-1H-benzo[e][1,4]diazepin-5-yl)-benzonitrile] | 9%
COc1cc2c(c(OC)c1-c1ccccc1)C(c1cccc(C(N)=O)c1)=NCC(=O)N2CCCc1ccccc1 [Compound 26, 3-[6,8-Dimethoxy-2-oxo-7-phenyl-1-(3-Phenyl-propyl)-2,3-dihydro-1H-benzo[e][1,4]diazepin-5-yl]-benzamide] | 5%
COc1cc2c(c(OC)c1-c1ccccc1)C(c1cccc(C(N)=O)c1)=NCC(=O)N2CC1CC1 [Compound 23, 3-(1-Cyclopropylmethyl-6,8-dimethoxy-2-oxo-7-phenyl-2,3-dihydro-1H-benzo[e][1,4]diazepin-5-yl)-benzamide] | 15%
CCN1C(=O)CN=C(c2cccc(C#N)c2)c2c1cc(OC)c(-c1ccccc1)c2OC [Compound 11, 3-(6,8-Dimethoxy-2-oxo-7-phenyl-1-ethyl-2,3-dihydro-1H-benzo[e][1,4]diazepin-5-yl)-benzonitrile] | 10%
COc1cc2c(c(OC)c1-c1ccccc1)C(c1cccc(C#N)c1)=NCC(=O)N2CCCc1ccccc1 [Compound 16, 3-[6,8-Dimethoxy-2-oxo-7-phenyl-1-(3-phenyl-propyl)-2,3-dihydro-1H-benzo[e][1,4]diazepin-5-yl]-benzonitrile] | 18%
CCCN1C(=O)CN=C(c2cccc(C#N)c2)c2c1cc(OC)c(-c1ccccc1)c2OC [Compound 12, 3-(6,8-Dimethoxy-2-oxo-7-phenyl-1-propyl-2,3-dihydro-1H-benzo[e][1,4]diazepin-5-yl)-benzonitrile] | 17%
CCN1C(=O)CN=C(c2cccc(C(N)=O)c2)c2c1cc(OC)c(-c1ccccc1)c2OC [Compound 21, 3-(6,8-Dimethoxy-2-oxo-7-phenyl-1-ethyl-2,3-dihydro-1H-benzo[e][1,4]diazepin-5-yl)-benzamide] | 31%
COc1cc2c(c(OC)c1-c1ccccc1)C(c1cccc(C(N)=O)c1)=NCC(=O)N2Cc1ccc(C(F)(F)F)cc1 [Compound 25, 3-[6,8-Dimethoxy-2-oxo-7-phenyl-1-(4-trifluoromethyl-benzyl)-2,3-dihydro-1H-benzo[e][1,4]diazepin-5-yl]-benzamide] | 18%
CCCN1C(=O)CN=C(c2cccc(C(N)=O)c2)c2c1cc(OC)c(-c1ccccc1)c2OC [Compound 22, 3-(6,8-Dimethoxy-2-oxo-7-phenyl-1-propyl-2,3-dihydro-1H-benzo[e][1,4]diazepin-5-yl)-benzamide] | 16%
COc1cc2c(c(OC)c1-c1ccccc1)C(c1cccc(C(N)=O)c1)=NCC(=O)N2Cc1ccccc1 [Compound 24, 3-(1-Benzyl-6,8-dimethoxy-2-oxo-7-phenyl-2,3-dihydro-1H-benzo[e][1,4]diazepin-5-yl)-benzamide] | 18%
COCC#Cc1cccc(C2=NCC(=O)N(C)c3cc(OC)c(-c4ccccc4)c(OC)c32)c1 [Compound 27, 6,8-Dimethoxy-5-[3-(3-methoxy-prop-1-ynyl)-phenyl]-1-methyl-7-phenyl-1,3-dihydro-benzo[e][1,4]diazepin-2-one] | 83%
COc1cc2c(c(OC)c1-c1ccccc1)C(c1cccc(CCCN)c1)=NCC(=O)N2C [Compound 32, 5-[3-(3-Amino-propyl)-phenyl]-6,8-dimethoxy-1-methyl-7-phenyl-1,3-dihydro-benzo[e][1,4]diazepin-2-one] | 22%
COc1cc2c(c(OC)c1-c1ccccc1)C(c1cccc(C#N)c1)=NCC(=O)N2CC1CC1 [Compound 13, 3-(1-Cyclopropylmethyl-6,8-dimethoxy-2-oxo-7-phenyl-2,3-dihydro-1H-benzo[e][1,4]diazepin-5-yl)-benzonitrile] | 20%
COc1cc2c(c(OC)c1-c1ccccc1)C(c1cccc(C#N)c1)=NCC(=O)N2Cc1ccc(C(F)(F)F)cc1 [Compound 15, 3-[6,8-Dimethoxy-2-oxo-7-phenyl-1-(4-trifluoromethyl-benzyl)-2,3-dihydro-1H-benzo[e][1,4]diazepin-5-yl]-benzonitrile] | 9%

system: σ receptors; test: Isolated organ bioassay, field-stimulated vas deferens: test for agonist activity; parameters: species or system guinea pig; details: 1.0 10^−4 M; mean, n=2
Protocol: Segments of guinea pig vas deferens were suspended in 20-ml organ baths containing an oxygenated (95% O2 and 5% CO2) and pre-warmed (37° C.) physiological salt solution of the following composition (in mM): NaCl 118.0, KCl 4.7, MgSO4 1.2, CaCl2 2.5, KH2PO4 1.2, NaHCO3 25.0 and glucose 11.0 (pH 7.4). Yohimbine (1 μM), (−) sulpiride (1 μM), atropine (1 μM) and naloxone (1 μM) were also present throughout the experiments to block the α2-adrenergic, dopamine D2, muscarinic and opioid receptors, respectively. The tissues were connected to force transducers for isometric tension recordings. They were stretched to a resting tension of 0.5 g, allowed to equilibrate for at least 30 min during which time they were washed repeatedly and the tension readjusted. Thereafter, they were stimulated electrically using a constant current stimulator.
The tissues were exposed to a submaximal concentration of the reference agonist (+) SKF-10047 (100 μM) to verify responsiveness and to obtain a control response. Following washings and recovery of the twitch contraction amplitude, the tissues were exposed to increasing concentrations of substance or the same agonist. The different concentrations were added cumulatively and each was left in contact with the tissues until a stable response was obtained or for a maximum of 15 min. If an agonist-like response (enhancement of twitch contractions) was obtained, the reference antagonist rimcazole (10 μM) was tested against the highest concentration of substance to confirm the involvement of the σ receptors in this response.
The parameter measured was the maximum change in the twitch contraction amplitude induced by each compound concentration. The results are expressed as a percent variation of the control twitch contraction amplitude (mean values). The effects of substance tested at 1.0 10^−6 M, 3.0 10^−6 M and 1.0 10^−5 M for agonist and antagonist activities at the σ receptors in the guinea pig vas deferens bioassay are summarized in Tables 6-7 where those of the reference compounds are also reported.

Compound | Response to the compound, variation of twitch contraction amplitude
(+)SKF-10,047 | +158%

same assay, conditions: 1.0 10^−5 M; mean, n=2

Compound | Response to the compound, variation of twitch contraction amplitude
(+)SKF-10,047 | +40%

same assay, conditions: 3.0 10^−5 M; mean, n=2

Compound | Response to the compound, variation of twitch contraction amplitude
(+)SKF-10,047 | +90%

same assay, conditions: field-stimulated guinea pig vas deferens

Compound | Effect on twitch contraction amplitude (in words)
(+)SKF-10,047 | concentration-dependent enhancement of the twitch contraction amplitude

same assay, conditions: highest compound concentration plus rimcazole 1.0 10^−5 M; mean, n=2

Compound | Response to the highest concentration of the compound +Rimcazole (1.0 10^−5 M)
(+)SKF-10,047 | −8%
